Counter-ions that a name gives are not always drawn.
What follows are compounds tested against T1, human GPR120 (Homo sapiens, UniProt Q5NUL3) (assay: Human GPR120 IP1 assay (inositol phosphate turnover)). Settings: IP1 accumulation in CHO-K1 cells stably expressing the short form of human GPR120.
T1 construct: expressed in transfected cells; host or cells: CHO-K1
T1 sequence (Q5NUL3 1-361): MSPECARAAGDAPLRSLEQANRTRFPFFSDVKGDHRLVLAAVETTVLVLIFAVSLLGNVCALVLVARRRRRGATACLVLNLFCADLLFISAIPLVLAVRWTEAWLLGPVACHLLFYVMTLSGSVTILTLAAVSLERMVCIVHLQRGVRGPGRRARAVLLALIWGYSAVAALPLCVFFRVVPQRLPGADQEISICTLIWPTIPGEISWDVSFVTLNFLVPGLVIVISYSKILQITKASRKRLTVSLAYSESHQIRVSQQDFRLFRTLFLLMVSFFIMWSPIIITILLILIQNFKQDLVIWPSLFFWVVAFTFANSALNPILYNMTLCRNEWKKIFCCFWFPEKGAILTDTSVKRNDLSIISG
Assay type: cell-based
From the text: The binding of small molecule agonists to the G-protein-coupled receptor GPR120 activates phospholipase C, and leads to the generation of inositol 1,4,5-trisphosphate (InsP3 or IP3). IP3 is subsequently de-phosphorylated to IP1, which accumulates in cells and is stable in the presence of lithium chloride.
In the present method, agonist-induced activation of the human and rat GPR120 receptor was monitored by measuring the accumulation of IP1 in CHO-K1 cells that were stably expressing the short form of human GPR120 (Accession #NM_001195755) or HEK293 cells stably expressing rat GPR120 (Accession #NM_001047088). Following agonist addition, GPR120 activation and subsequent accumulation of IP1 was measured using a homogeneous Time Resolved Fluorescence-based ELISA commercially available from CisBio (IP-one ELISA Kit). The IP-One ELISA was a competitive immunoassay which uses IP1 labeled with […] and a terbium cryptate-labeled anti-IP1 monoclonal antibody. […] The signal loss was then back calculated to IP1 concentration using an IP1 standard curve. Determination of IP1 concentration was a direct measure of GPR120 activation and was used to determine compound potency (EC50).
Human GPR120 stable cell-lines were generated in CHO cells. The expression plasmids were transfected using lipofectamine (Life Technologies) following manufacturer's instructions. Stable cell-lines were generated following drug selection and single cell cloning. Rat GPR120 stable cell-lines were generated in HEK cells using the Jump-In™ cell engineering platform (Life Technologies) following manufacturer's instructions. Stable cell-lines were generated following drug selection and single cell cloning.
The assay was performed in 384-well format. CHO cells stably expressing human GPR120 were plated at 20,000 cells per well in growth medium (DMEM/F12, 10% fetal calf serum). HEK293 cells stably expressing rat GPR120 were plated at […] per well in growth medium (DMEM, 10% fetal calf serum). Cell plates were then incubated 16 hours at 37 degrees in a 5% CO2 incubator. Measurement of Inositol Phosphate Turnover (IP1) was performed using the CisBio IP-One kit (Part number 62IPAPEB). After the 16 hour incubation, the growth media was removed by centrifugation using the BlueWasher (AusWasher GUI Ver. v1.0.1.8) Protocol #21-“Light Dry” and 10 μl of stimulation buffer (prepared as described in the kit) was added to each well. In a separate plate, compounds were diluted in DMSO (200-fold over the final concentration in the assay well) and 50 nl was acoustically transferred to the appropriate well in the assay cell plate. The plates were then incubated for 60 minutes at 37 degrees in a 5% CO2 incubator. 10 μl of detection buffer (also prepared as described in the IP-One kit) was added to each well and the plates were incubated at room temperature for 60 minutes in the dark. The plates were then read in a Perkin ElmerEnVision or equivalent reader able to measure FRET. Fluorescent ratio of emission at 665 and 620 nm was then converted to the IP1 concentration by back calculating from an IP1 standard curve prepared at the time of the assay. The data was normalized to % activity using a reference compound, and the EC50 values were determined using a standard 4-parameter fit.
Compound Oc1cc(-c2ccc(OC3CC(OCc4ccc(F)cc4F)C3)nc2)on1 (mixture of isomers) [Example 72, 5-[6-({cis-3-[(2,4-difluorobenzyl)oxy]cyclobutyl}oxy)pyridin-3-yl]isoxazol-3-ol (mixture of isomers predominantly cis)] has an EC50 of 29 nM.
N#Cc1cccc(COC2CC(Oc3ccc(-c4cc(O)no4)cn3)C2)c1 (mixture of isomers) [Example 73, 3-{[(cis-3-{[5-(3-hydroxyisoxazol-5-yl)pyridin-2-yl]oxy}cyclobutyl)oxy]methyl}benzonitrile (mixture of isomers predominantly cis)] was tested, and the EC50 was 166 nM.
Compound Oc1cc(-c2ccc(OC3CC(OCc4cc(F)ccc4C(F)(F)F)C3)nc2)on1 (mixture of isomers) [Example 76, ammonium 5-{6-[(cis-3-{[5-fluoro-2-(trifluoromethyl)benzyl]oxy}cyclobutyl)oxy]pyridin-3-yl)isoxazol-3-olate (mixture of isomers predominantly cis)] has an EC50 of 138 nM.
With N#Cc1cccc(COC2CC(Oc3ccc(-c4cc(O)no4)cn3)C2)c1F (mixture of isomers) [Example 77, ammonium 5-[6-({cis-3-[(3-cyano-2-fluorobenzyl)oxy]cyclobutyl}oxy)pyridin-3-yl]isoxazol-3-olate (mixture of isomers predominantly cis)] the EC50 was 388 nM.
In the case of CC(OC1CC(Oc2ccc(-c3cc(O)no3)cn2)C1)c1ccccc1 (mixture of isomers) [Example 78, 5-(6-{[3-(1-phenylethoxy)cyclobuty]oxy}pyridin-3-yl)isoxazol-3-ol (mixture of isomers)], the EC50 is reported as 305 nM.
Oc1cc(-c2cnc(OC3CC(OCc4cc(C(F)(F)F)ccc4F)C3)cn2)on1 (mixture of isomers) [Example 79, 5-{5-[(cis-3-{[2-fluoro-5-(trifluoromethyl)benzyl]oxy}cyclobutyl)oxy]pyrazin-2-yl}isoxazol-3-ol (mixture of isomers predominantly cis)] showed an EC50 of 13 nM.
In the case of Oc1cc(-c2cnc(OC3CC(OCC4CCCCC4)C3)cn2)on1 (mixture of isomers) [Example 80, 5-(5-{[cis-3-(cyclohexylmethoxy)cyclobutyl]oxy}pyrazin-2-yl)isoxazol-3-ol (mixture of isomers predominantly cis)], the EC50 is reported as 23 nM.
Work on Oc1cc(-c2cnc(OC3CC(OCC4CCCC4)C3)cn2)on1 (mixture of isomers) [Example 81, sodium 5-(5-{[cis-3-(cyclopentylmethoxy)cyclobutyl]oxy}pyrazin-2-yl)isoxazol-3-olate (mixture of isomers predominantly cis)] yielded an EC50 of 31 nM.
In the case of Oc1cc(-c2cnc(O[C@H]3C[C@@](F)(c4cc(OC(F)(F)F)ccc4F)C3)cn2)on1 (single isomer, unassigned) [Example 89, 5-[5-({trans-3-fluoro-3-[2-fluoro-5-(trifluoromethoxy)phenyl]-cyclobutyl}oxy)pyrazin-2-yl]isoxazol-3-ol], the EC50 is reported as 51 nM.
In the case of Oc1cc(-c2ccc(OC3CCC(c4cccc(OC(F)(F)F)c4)C3)nc2)on1 (single isomer, unassigned) [Example 116, 5-(3-hydroxyisoxazol-5-yl)-2-({3-[3-(trifluoromethoxy)-phenyl]cyclopentyl}oxy)pyridinium trifluoroacetate], the EC50 is reported as 18 nM.
Compound Oc1cc(-c2ccc(OC3CCC(c4cccc(OC(F)(F)F)c4)C3)nc2)on1 (single isomer, unassigned) [Example 117, 5-(3-hydroxyisoxazol-5-yl)-2-({3-[3-(trifluoromethoxy)phenyl]cyclopentyl}oxy)pyridinium trifluoroacetate] has an EC50 of 59 nM.
Oc1cc(-c2ccc(OC3CCC(c4cccc(OC(F)(F)F)c4)C3)nc2)on1 (single isomer, unassigned) [Example 118] gave an EC50 of 34 nM.
Work on Oc1cc(-c2ccc(OC3CCC(c4cccc(OC(F)(F)F)c4)C3)nc2)on1 (single isomer, unassigned) [Example 119, 5-(6-((3-(3-(trifluoromethoxy)phenyl)cyclopentyl)oxy)pyridin-3-yl)isoxazol-3-ol] yielded an EC50 of 12 nM.
Oc1cc(-c2cnc(O[C@H]3C[C@@H](c4ccc(C(F)F)c(F)c4)C3)cn2)on1 [Example 1, 5-[5-({cis-3-[4-(difluoromethyl)-3-fluorophenyl]cyclobutyl}oxy)pyrazin-2-yl]isoxazol-3-ol] was tested, and the EC50 was 8.7 nM.
Oc1cc(-c2cnc(O[C@H]3C[C@H](c4ccc(C(F)F)c(F)c4)C3)cn2)on1 [Example 2, 5-[5-({trans-3-[4-(difluoromethyl)-3-fluorophenyl]cyclobutyl}oxy)pyrazin-2-yl]isoxazol-3-ol] was tested, and the EC50 was 178 nM.
Work on Oc1cc(-c2cnc(O[C@H]3C[C@@H](c4cc(F)cc(OC(F)(F)F)c4)C3)cn2)on1 [Example 3, ammonium 5-[5-({cis-3-[3-fluoro-5-(trifluoromethoxy)-phenyl]cyclobutyl}oxy)pyrazin-2-1]isoxazol-3-olate] yielded an EC50 of 102 nM.
Compound Oc1cc(-c2cnc(O[C@H]3C[C@@H](c4ccc(OC5CC5)cc4)C3)cn2)on1 [Example 4, sodium 5-[5-({cis-3-[4-(cyclopropyloxy)phenyl]cyclobutyl}-oxy)pyrazin-2-yl]isoxazol-3-olate] has an EC50 of 83 nM.
Oc1cc(-c2cnc(O[C@H]3C[C@@H](c4nc(C(F)(F)F)cs4)C3)cn2)on1 [Example 5, 5-[5-({cis-3-[4-(trifluoromethyl)-1,3-thiazol-2-yl]cyclobutyl}oxy)pyrazin-2-yl]isoxazol-3-ol] was tested, and the EC50 was 82 nM.
Oc1cc(-c2cnc(O[C@H]3C[C@@H](c4ncc(C(F)(F)F)s4)C3)cn2)on1 [Example 6, 5-[5-({cis-3-[5-(trifluoromethyl)-1,3-thiazol-2-yl]cyclobutyl}oxy)pyrazin-2-yl]isoxazol-3-ol] showed an EC50 of 129 nM.
Oc1cc(-c2cnc(O[C@H]3C[C@@H](c4ccc(Br)cc4)C3)cn2)on1 [Example 7, ammonium 5-(5-{[cis-3-(4-bromophenyl)cyclobutyl]oxy}pyrazin-2-yl)isoxazol-3-olate] was tested, and the EC50 was 11 nM.
Oc1cc(-c2ccc(O[C@H]3C[C@H](c4ncc(C(F)(F)F)cc4F)C3)nc2)on1 [Example 8, sodium 5-[6-({trans-3-[3-fluoro-5-(trifluoromethyl)pyridin-2-yl]-cyclobutyl}oxy)pyridin-3-yl]isoxazol-3-olate] was tested, and the EC50 was 303 nM.
Oc1cc(-c2ccc(O[C@H]3C[C@@H](c4ncc(C(F)(F)F)cc4F)C3)nc2)on1 [Example 9, sodium 5-[6-({cis-3-[3-fluoro-5-(trifluoromethyl)pyridin-2-yl]-cyclobutyl}oxy)pyridin-3-yl]isoxazol-3-olate] was tested, and the EC50 was 23 nM.
For Oc1cc(-c2cnc(O[C@H]3C[C@@H](c4ccc(F)cc4)C3)cn2)on1 [Example 10, sodium 5-(5-{[cis-3-(4-fluorophenyl)cyclobutyl]oxy}pyrazin-2-yl)isoxazol-3-olate], the EC50 was 34 nM.
Oc1cc(-c2ccc(O[C@H]3C[C@@H](c4cc(OC(F)(F)F)ccc4F)C3)nc2)on1 [Example 11, ammonium 5-[6-({cis-3-[2-fluoro-5-(trifluoromethoxy)phenyl]cyclo-butyl}oxy)pyridin-3-yl]isoxazol-3-olate] was tested, and the EC50 was 112 nM.
In the case of CCc1ccc([C@H]2C[C@@H](Oc3ccc(-c4onc(O)c4F)cn3)C2)cc1 [Example 13, ammonium 5-(6-{[cis-3-(4-ethylphenyl)cyclobuty]oxy}pyridin-3-yl)-4-fluoroisoxazol-3-olate], the EC50 is reported as 181 nM.

Reference: patent US10864211B2, “Hydroxy isoxazole compounds useful as GPR120 agonists” (Merck Sharp & Dohme Corp., priority 2016, dated 2020)
